Measurements from patent publication US7951829B2, “Benzimidazole modulators of VR1” (Janssen Pharmaceutica NV, priority 2006, dated 2011).

Molecular target: T1, hVR1 (Homo sapiens, UniProt Q8NER1)
T1 construct: expressed in transfected cells; host or cells: HEK293
Experiment: Human VR1 (hVR1) Functional Assay (FLIPR intracellular calcium, capsaicin challenge)
Format: cell-based
Conditions: capsaicin 0.030 μM, HEK293 cells expressing hVR1; for inhibition at 1 µM: test concentration 1 μM

T1 sequence (Q8NER1 whole entry): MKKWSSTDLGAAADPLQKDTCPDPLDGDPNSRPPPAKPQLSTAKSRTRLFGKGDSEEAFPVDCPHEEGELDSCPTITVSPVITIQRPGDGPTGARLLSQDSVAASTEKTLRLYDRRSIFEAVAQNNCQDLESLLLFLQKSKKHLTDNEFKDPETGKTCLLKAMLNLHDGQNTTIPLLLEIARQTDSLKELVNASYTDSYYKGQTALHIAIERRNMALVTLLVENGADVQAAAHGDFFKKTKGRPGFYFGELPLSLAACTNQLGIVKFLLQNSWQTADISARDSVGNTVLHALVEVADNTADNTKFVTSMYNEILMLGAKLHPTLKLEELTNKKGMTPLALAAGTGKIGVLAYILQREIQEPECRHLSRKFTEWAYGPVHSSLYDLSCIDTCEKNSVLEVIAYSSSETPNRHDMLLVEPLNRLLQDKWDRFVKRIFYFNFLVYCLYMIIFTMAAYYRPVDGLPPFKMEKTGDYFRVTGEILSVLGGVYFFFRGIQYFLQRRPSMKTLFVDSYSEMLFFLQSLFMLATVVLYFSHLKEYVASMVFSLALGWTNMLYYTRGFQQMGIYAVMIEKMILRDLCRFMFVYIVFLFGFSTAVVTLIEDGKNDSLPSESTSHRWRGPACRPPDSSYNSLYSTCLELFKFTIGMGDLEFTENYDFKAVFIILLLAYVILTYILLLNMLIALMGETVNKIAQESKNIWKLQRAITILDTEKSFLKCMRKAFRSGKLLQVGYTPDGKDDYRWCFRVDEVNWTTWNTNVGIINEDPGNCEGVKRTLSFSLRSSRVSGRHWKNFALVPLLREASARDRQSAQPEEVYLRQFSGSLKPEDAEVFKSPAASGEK

Row | SMILES | IC50 [nM] | inhibition at 1 µM [%]
1 | CS(=O)(=O)Nc1ccccc1-c1ccc2[nH]c(/C=C/c3cc(F)cc(C(F)(F)F)c3)nc2c1 [Cpd 411, (E)-N-(2-{2-[2-(3-fluoro-5-trifluoromethyl-phenyl)-vinyl]-1H-benzimidazol-5-yl}-phenyl)-methanesulfonamide] | 350 | 85
2 | CNS(=O)(=O)c1ccccc1-c1ccc2[nH]c(/C=C/c3ccc(Cl)cc3S(C)(=O)=O)nc2c1 [Cpd 340, (E)-2-{2-[2-(4-chloro-2-methanesulfonyl-phenyl)-vinyl]-1H-benzimidazol-5-yl}-N-methyl-benzenesulfonamide] | 62 | 98
3 | CS(=O)(=O)Nc1ccccc1-c1ccc2[nH]c(/C=C/c3ccc(Cl)cc3)nc2c1 [Cpd 77, (E)-N-(2-{2-[2-(4-chloro-phenyl)-vinyl]-1H-benzimidazol-5-yl}-phenyl)-methanesulfonamide] | 76 | 100
4 | CNS(=O)(=O)c1ccccc1-c1ccc2[nH]c(/C=C/c3cccc(F)c3F)nc2c1 [Cpd 325, (E)-2-{2-[2-(2,3-difluoro-phenyl)-vinyl]-1H-benzimidazol-5-yl}-N-methyl-benzenesulfonamide] | – | 73
5 | CS(=O)(=O)Nc1ccccc1-c1ccc2[nH]c(/C=C/c3ccc(F)c(F)c3)nc2c1 [Cpd 28, (E)-N-(2-{2-[2-(3,4-difluoro-phenyl)-vinyl]-1H-benzimidazol-5-yl}-phenyl)-methanesulfonamide] | 250 | 96
6 | CC(C)(C)c1ccc(/C=C/c2nc3cc(-c4cccc(C(N)=O)c4)ccc3[nH]2)cc1 [Cpd 6, (E)-3-{2-[2-(4-tert-butyl-phenyl)-vinyl]-1H-benzimidazol-5-yl}-benzamide] | – | 12
7 | CC(C)(O)c1ccccc1-c1ccc2[nH]c(C3CC3c3cccc(C(F)(F)F)c3)nc2c1 (stereo not shown) [Cpd 234, 2-(2-{2-[2-(3-trifluoromethyl-phenyl)-cyclopropyl]-1H-benzimidazol-5-yl}-phenyl)-propan-2-ol] | – | 7
8 | CC(C)(C)c1ccc(/C=C/c2nc3cc(-c4cccc(O)c4)c(C(F)(F)F)cc3[nH]2)cc1 [Cpd 49, (E)-3-{2-[2-(4-tert-butyl-phenyl)-vinyl]-6-trifluoromethyl-1H-benzimidazol-5-yl}-phenol] | – | 16
9 | CC(=O)Nc1ccc(-c2ccc3[nH]c(/C=C/c4ccc(C(C)(C)C)cc4)nc3c2)cc1 [Cpd 8, (E)-N-(4-{2-[2-(4-tert-butyl-phenyl)-vinyl]-1H-benzimidazol-5-yl}-phenyl)-acetamide] | – | 10
10 | CC(C)(C)NS(=O)(=O)c1ccccc1-c1ccc2[nH]c(/C=C/c3ccc(C(F)(F)F)cc3)nc2c1 [Cpd 309, (E)-N-tert-butyl-2-{2-[2-(4-trifluoromethyl-phenyl)-vinyl]-1H-benzimidazol-5-yl}-benzenesulfonamide] | – | 73
11 | CS(=O)(=O)Nc1ccccc1-c1ccc2[nH]c(/C=C/c3ccc(Cl)c(Cl)c3)nc2c1 [Cpd 416, (E)-N-(2-{2-[2-(3,4-dichloro-phenyl)-vinyl]-1H-benzimidazol-5-yl}-phenyl)-methanesulfonamide] | 120 | 96
12 | NS(=O)(=O)c1ccccc1-c1ccc2[nH]c(/C=C/c3cc(F)ccc3F)nc2c1 [Cpd 360, (E)-2-{2-[2-(2,5-difluoro-phenyl)-vinyl]-1H-benzimidazol-5-yl}-benzenesulfonamide] | 46 | 98
13 | Cn1c(/C=C/c2ccc(C(F)(F)F)cc2)nc2cc(-c3ccccc3NS(C)(=O)=O)ccc21 [Cpd 477, (E)-N-(2-{1-methyl-2-[2-(4-trifluoromethyl-phenyl)-vinyl]-1H-benzimidazol-5-yl}-phenyl)-methanesulfonamide] | – | 44
14 | CS(=O)(=O)Nc1ccccc1-c1ccc2[nH]c(/C=C/c3ccc(F)c(Cl)c3)nc2c1 [Cpd 408, (E)-N-(2-{2-[2-(3-chloro-4-fluoro-phenyl)-vinyl]-1H-benzimidazol-5-yl}-phenyl)-methanesulfonamide] | – | 64
15 | CSc1ccccc1-c1ccc2[nH]c(/C=C/c3ccc(C(F)(F)F)cc3)nc2c1 [Cpd 480, (E)-5-(2-methylsulfanyl-phenyl)-2-[2-(4-trifluoromethyl-phenyl)-vinyl]-1H-benzimidazole] | > 500 | –

More lines, in order of falling IC50, values ahead:

Row | IC50 [nM] | inhibition at 1 µM [%] | SMILES
16 | 46 | 100 | CC(O)c1ccccc1-c1ccc2[nH]c(CCc3ccc(S(=O)(=O)C(F)(F)F)cc3)nc2c1 (stereo not shown) [Cpd 46, 1-(2-{2-[2-(4-trifluoromethanesulfonyl-phenyl)-ethyl]-1H-benzimidazol-5-yl}-phenyl)-ethanol]
17 | 44 | 98 | NS(=O)(=O)c1cc(C(F)(F)F)ccc1-c1ccc2[nH]c(CCc3ccc(C(F)(F)F)cc3)nc2c1 [Cpd 447, 5-trifluoromethyl-2-{2-[2-(4-trifluoromethyl-phenyl)-ethyl]-1H-benzimidazol-5-yl}-benzenesulfonamide]
18 | 41 | 100 | OCc1ccccc1-c1ccc2[nH]c(/C=C/c3ccc(SC(F)(F)F)cc3)nc2c1 [Cpd 35, (E)-(2-{2-[2-(4-trifluoromethylsulfanyl-phenyl)-vinyl]-1H-benzimidazol-5-yl}-phenyl)-methanol]
19 | 41 | 98 | NS(=O)(=O)c1ccccc1-c1ccc2[nH]c(CCc3cc(C(F)(F)F)cc(C(F)(F)F)c3)nc2c1 [Cpd 387, 2-{2-[2-(3,5-bis-trifluoromethyl-phenyl)-ethyl]-1H-benzimidazol-5-yl}-benzenesulfonamide]
20 | 33 | 98 | CNS(=O)(=O)c1ccccc1-c1ccc2[nH]c(/C=C/c3cc(F)c(F)cc3F)nc2c1 [Cpd 324, (E)-N-methyl-2-{2-[2-(2,4,5-trifluoro-phenyl)-vinyl]-1H-benzimidazol-5-yl}-benzenesulfonamide]
21 | 31 | 96 | NS(=O)(=O)c1ccccc1-c1ccc2[nH]c(CCc3ccc(S(=O)(=O)C(F)(F)F)cc3)nc2c1 [Cpd 131, 2-{2-[2-(4-trifluoromethanesulfonyl-phenyl)-ethyl]-1H-benzimidazol-5-yl}-benzenesulfonamide]
22 | 31 | 98 | NS(=O)(=O)c1ccccc1-c1ccc2[nH]c(CCc3ccc(Cl)cc3)nc2c1 [Cpd 139, 2-{2-[2-(4-chloro-phenyl)-ethyl]-1H-benzimidazol-5-yl}-benzenesulfonamide]
23 | 23 | 97 | NS(=O)(=O)c1ccccc1-c1ccc2[nH]c(/C=C/c3ccc(F)c(Br)c3)nc2c1 [Cpd 439, (E)-2-{2-[2-(3-bromo-4-fluoro-phenyl)-vinyl]-1H-benzimidazol-5-yl}-benzenesulfonamide]
24 | 19 | 98 | NS(=O)(=O)c1ccccc1-c1ccc2[nH]c(C#Cc3ccc(C(F)(F)F)cc3)nc2c1 [Cpd 250, 2-[2-(4-trifluoromethyl-phenylethynyl)-1H-benzimidazol-5-yl]-benzenesulfonamide]
25 | 17 | 99 | NS(=O)(=O)c1ccccc1-c1ccc2[nH]c(/C=C/c3ccccc3Cl)nc2c1 [Cpd 365, (E)-2-{2-[2-(2-chloro-phenyl)-vinyl]-1H-benzimidazol-5-yl}-benzenesulfonamide]
26 | 15 | 93 | NS(=O)(=O)c1ccccc1-c1ccc2[nH]c(CCc3ccc(F)cc3)nc2c1 [Cpd 420, 2-{2-[2-(4-fluoro-phenyl)-ethyl]-1H-benzimidazol-5-yl}-benzenesulfonamide]
27 | 13 | 99 | NS(=O)(=O)c1ccccc1-c1ccc2[nH]c(CCc3cc(F)cc(F)c3)nc2c1 [Cpd 396, 2-{2-[2-(3,5-difluoro-phenyl)-ethyl]-1H-benzimidazol-5-yl}-benzenesulfonamide]
28 | 13 | 98 | NS(=O)(=O)c1ccccc1-c1ccc2[nH]c(/C=C/c3ccc(Cl)c(Cl)c3)nc2c1 [Cpd 427, (E)-2-{2-[2-(3,4-dichloro-phenyl)-vinyl]-1H-benzimidazol-5-yl}-benzenesulfonamide]
29 | 12 | 101 | CNS(=O)(=O)c1ccccc1-c1ccc2[nH]c(/C=C/c3ccc(Cl)c(Cl)c3)nc2c1 [Cpd 316, (E)-2-{2-[2-(3,4-dichloro-phenyl)-vinyl]-1H-benzimidazol-5-yl}-N-methyl-benzenesulfonamide]
30 | 11 | 99 | NS(=O)(=O)c1ccccc1-c1ccc2[nH]c(/C=C/c3ccc(C(F)(F)F)c(F)c3)nc2c1 [Cpd 423, (E)-2-{2-[2-(3-fluoro-4-trifluoromethyl-phenyl)-vinyl]-1H-benzimidazol-5-yl}-benzenesulfonamide]
31 | 10 | 98 | NS(=O)(=O)c1ccccc1-c1ccc2[nH]c(/C=C/c3ccc4ccccc4c3)nc2c1 [Cpd 433, (E)-2-[2-(2-naphthalen-2-yl-vinyl)-1H-benzimidazol-5-yl]-benzenesulfonamide]
32 | 10 | 96 | NS(=O)(=O)c1ccccc1-c1ccc2[nH]c(/C=C/c3cc(F)cc(C(F)(F)F)c3)nc2c1 [Cpd 436, (E)-2-{2-[2-(3-fluoro-5-trifluoromethyl-phenyl)-vinyl]-1H-benzimidazol-5-yl}-benzenesulfonamide]
33 | 8 | 99 | NS(=O)(=O)c1ccccc1-c1ccc2[nH]c(/C=C/c3ccc(F)c(C(F)(F)F)c3)nc2c1 [Cpd 369, (E)-2-{2-[2-(4-fluoro-3-trifluoromethyl-phenyl)-vinyl]-1H-benzimidazol-5-yl}-benzenesulfonamide]
34 | 7 | 96 | NS(=O)(=O)c1ccccc1-c1ccc2[nH]c(CCc3ccc(Cl)c(C(F)(F)F)c3)nc2c1 [Cpd 390, 2-{2-[2-(4-chloro-3-trifluoromethyl-phenyl)-ethyl]-1H-benzimidazol-5-yl}-benzenesulfonamide]
35 | 6 | 98 | CC(C)c1ccc(/C=C/c2nc3cc(-c4ccccc4S(N)(=O)=O)ccc3[nH]2)cc1 [Cpd 429, (E)-2-{2-[2-(4-isopropyl-phenyl)-vinyl]-1H-benzimidazol-5-yl}-benzenesulfonamide]
